From patent US11730712B2, “Functionalized long-chain hydrocarbon mono- and di-carboxylic acids and derivatives thereof, and their use for the prevention or treatment of disease” (ESPERVITA THERAPEUTICS, INC., priority 2021, dated 2023)

System: liver fibrosis gene panel (770 genes)
Assay: Nanostring nCounter Fibrosis panel gene expression in liver of DEN-injected mice
Type: in vivo, mouse
Conditions: vs vehicle
Description: Nanostring Analysis. RNA was extracted from paired liver and tumor tissue from vehicle, Compound I-1 (100 mg/kg) and Compound I-32 (100 mg/kg) treated mice using an RNeasy kit (Qiagen, Calif., USA) as per manufacturer's protocol. All RNA samples passed the BioAnalyzer quality control test. The expression of target genes in liver and tumor were analyzed using the nCounter Fibrosis and Cancer Panel (NanoString Technologies, Inc., WA, USA), respectively according to manufacturer's protocol at the McMaster Genomics Facility. Technical and biological normalization against global geometric mean was performed in nSolver 4.0 software (NanoString Technologies). Technical normalization was performed in the nSolver software (version 4.0.70) by normalizing sample target raw counts to the geometric mean of positive control spike-ins. Biological normalization was performed by normalizing sample target raw counts to the geometric mean of selected housekeeping genes (Ppia, Nubp1, Nol7, Armh3, Rplp0, Cnot10, Pgk1, and Acad9). Pathway scores were calculated as the first principal component of the normalized expression values for all genes in each pathway and samples were compiled according to experimental groups to determine average pathway scores. Statistical significance was calculated between experimental groups using multiple t-tests and p-values were corrected for multiple comparisons using Benjamin-Hochberg false discovery rate.
Molecular analysis. To identify the pathways modulated in the liver and tumor tissue, nanostring analysis of fibrosis and cancer, pathways, respectively were completed in an n=8 mice treated with vehicle or Compound I-32 or Compound I-1 at 100 mg/kg.

For `CC(C)(CCCCc1ccc(CCCCC(C)(C)C(=O)O)cc1)C(=O)O` [Compound I-1, 6-[4-(5-carboxy-5-methylhexyl)-phenyl]-2,2-dimethylhexanoic acid], the “Tin1 Log2FC” value (NM_011602, 100 mg/kg) was −0.237, the “Txn1 Log2FC” value (NM_011660, 100 mg/kg) was 0.281 and the “Vegfb Log2FC” value (NM_011697, 100 mg/kg) was 0.603. For the same compound, the “Vim Log2FC” value (NM_011701, 100 mg/kg) was −0.309, the “Adh4 Log2FC” value (NM_011996, 100 mg/kg) was −0.808 and the “Apoa2 Log2FC” value (NM_013474, 100 mg/kg) was 0.172. For the same compound, the “Apoh Log2FC” value (NM_013475, 100 mg/kg) was −0.225, the “C9 Log2FC” value (NM_013485, 100 mg/kg) was −1.55 and the “Cpt1a Log2FC” value (NM_013495, 100 mg/kg) was −0.302. For the same compound, the “Creb3 Log2FC” value (NM_013497, 100 mg/kg) was −0.38, the “P3h3 Log2FC” value (NM_013534, 100 mg/kg) was −0.96 and the “Ptpn6 Log2FC” value (NM_013545, 100 mg/kg) was 0.326. For the same compound, the “Slc25a10 Log2FC” value (NM_013770, 100 mg/kg) was 0.508, the “H2-M3 Log2FC” value (NM_013819, 100 mg/kg) was −0.69 and the “Xbp1 Log2FC” value (NM_013842, 100 mg/kg) was −0.397. The “Col5a1 Log2FC” value (NM_015734, 100 mg/kg) was −0.513, the “Isg15 Log2FC” value (NM_015783, 100 mg/kg) was −0.727 and the “C6 Log2FC” value (NM_016704, 100 mg/kg) was −0.969. The “Smad3 Log2FC” value (NM_016769, 100 mg/kg) was −0.317, the “Irf3 Log2FC” value (NM_016849, 100 mg/kg) was −0.154 and the “Ywhag Log2FC” value (NM_018871, 100 mg/kg) was 0.305. For the same compound, the “Fbp1 Log2FC” value (NM_019395, 100 mg/kg) was −0.878, the “Ndufa1 Log2FC” value (NM_019443, 100 mg/kg) was 0.226 and the “Cpb2 Log2FC” value (NM_019775, 100 mg/kg) was −0.58. For the same compound, the “Uba52 Log2FC” value (NM_019883, 100 mg/kg) was 0.484, the “Ube2d2a Log2FC” value (NM_019912, 100 mg/kg) was −0.237 and the “Aldh9a1 Log2FC” value (NM_019993, 100 mg/kg) was 0.545. The “Angpti4 Log2FC” value (NM_020581, 100 mg/kg) was 0.707, the “Isg20 Log2FC” value (NM_020583, 100 mg/kg) was −0.48 and the “Abcb11 Log2FC” value (NM_021022, 100 mg/kg) was −0.442. For the same compound, the “Tlr4 Log2FC” value (NM_021297, 100 mg/kg) was −0.608, the “Mlxipl Log2FC” value (NM_021455, 100 mg/kg) was 0.439 and the “Cxcl12 Log2FC” value (NM_021704, 100 mg/kg) was −0.597. For the same compound, the “Apoc3 Log2FC” value (NM_023114, 100 mg/kg) was −0.657, the “Kng1 Log2FC” value (NM_023125, 100 mg/kg) was −0.396 and the “Cxcl16 Log2FC” value (NM_023158, 100 mg/kg) was −0.374. For the same compound, the “Em1 Log2FC” value (NM_023913, 100 mg/kg) was −0.533, the “Sec61b Log2FC” value (NM_024171, 100 mg/kg) was −0.355 and the “Cyp27a1 Log2FC” value (NM_024264, 100 mg/kg) was −0.594. The “Fabp4 Log2FC” value (NM_024406, 100 mg/kg) was 1.01, the “Spop Log2FC” value (NM_025287, 100 mg/kg) was 0.186 and the “Ndufb5 Log2FC” value (NM_025316, 100 mg/kg) was 0.415. For the same compound, the “Ssr2 Log2FC” value (NM_025448, 100 mg/kg) was −0.177, the “Psenen Log2FC” value (NM_025498, 100 mg/kg) was −0.126 and the “Ndufc1 Log2FC” value (NM_025523, 100 mg/kg) was 0.438. The “Cox6b1 Log2FC” value (NM_025628, 100 mg/kg) was 0.532, the “Uqcrh Log2FC” value (NM_025641, 100 mg/kg) was 0.311 and the “Uqcrfs1 Log2FC” value (NM_025710, 100 mg/kg) was 0.255. The “Map1lc3a Log2FC” value (NM_025735, 100 mg/kg) was 0.807, the “Ndufb8 Log2FC” value (NM_026061, 100 mg/kg) was 0.327 and the “Erp29 Log2FC” value (NM_026129, 100 mg/kg) was −0.217. For the same compound, the “Uqcrb Log2FC” value (NM_026219, 100 mg/kg) was 0.476, the “Hikeshi Log2FC” value (NM_026304, 100 mg/kg) was 0.233 and the “Sugt1 Log2FC” value (NM_026474, 100 mg/kg) was 0.185. The “Atg101 Log2FC” value (NM_026566, 100 mg/kg) was −0.436, the “Ndufs3 Log2FC” value (NM_026688, 100 mg/kg) was 0.26 and the “Anapc10 Log2FC” value (NM_026904, 100 mg/kg) was −0.291. For the same compound, the “Ifi35 Log2FC” value (NM_027320, 100 mg/kg) was −0.465, the “Pgm2 Log2FC” value (NM_028132, 100 mg/kg) was 0.361 and the “Phykpl Log2FC” value (NM_028398, 100 mg/kg) was −0.165. For the same compound, the “Pik3cb Log2FC” value (NM_029094, 100 mg/kg) was −0.421, the “Tlr1 Log2FC” value (NM_030682, 100 mg/kg) was −1.09 and the “Hcar2 Log2FC” value (NM_030701, 100 mg/kg) was 1.71. For the same compound, the “Cpn1 Log2FC” value (NM_030703, 100 mg/kg) was 0.371.
